Laboratory results from publication PMC11024869, “The activity of antimicrobial peptoids against multidrug-resistant ocular pathogens” (Contact lens & anterior eye : the journal of the British …, 2024).
Converted amounts (≈) assume the structure as drawn. Non-standard residues stand in square brackets, D forms with d. Residues, ends and D or L forms follow the SMILES beside them. Nspe = C[C@H](NCC(=O)O)c1ccccc1; NDecylGly = CCCCCCCCCCNCC(=O)O; Nlys = NCCCCNCC(=O)O

What was measured:
Type in all cases: cell-based
[1] = system: Pseudomonas aeruginosa PA216; details: PA216, MHB, 24 h 37 °C
Source text: (§3) The S. pneumoniae strains used were SP04, SP06 and SP07 [46] and Streptococcus gallolyticus SV06 (all isolated from eyes of contact lens wearers during adverse events); P. aeruginosa PAO1 (which was originally isolated from a wound, and is an invasive strain containing the gene exoS) as well as isolates from microbial keratitis, PA 235 (invasive strain containing exoS), PA216 (a cytotoxic strain containing exoU), PA219 (cytotoxic strain containing exoU), PA 233 (cytotoxic strain containing exoU), with various susceptibilities to antibiotics were also used [14]. C. albicans ATCC 10231, a yeast, isolated from case of a human bronchomycosis, was also evaluated.
(§4) The peptoids’ minimum inhibitory and bactericidal concentrations (MIC and MBC) were determined using micro broth dilution methods as previously described with slight modifications, [26, 39, 49, 50], and without using acetic acid and bovine serum albumin [39]. Briefly, bacteria or yeast were suspended in Muller Hinton broth (MHB, Oxoid, Thermo Fisher Scientific, Thebarton, SA, Australia) at 0.1 OD660nm, which was equivalent to 1x10^8 colony forming units (CFU) mL^−1. This suspension was further diluted to achieve 5x10^6 CFU mL^−1. The peptoids were diluted in MHB from 250 to 0.24 μg mL^−1 in 96-well polystyrene microplates (COSTAR, Corning Incorporated, New York, NY, USA) [39]. […] This was followed by addition of 100 μL of each microbial suspensions. Wells with only bacteria or the yeast were treated as a negative control, and wells with only MHB medium were treated as a blank. The plates were incubated at 37 °C with shaking at 120 rpm for 24 h. After incubation, the media in each well was serially diluted in phosphate buffered solution and then inoculated onto tryptone soya agar (Oxoid) plates for bacteria, or Sabouraud’s dextrose agar for the yeast, and incubated at 37 °C for 18 hrs. Post incubation, the number of CFUs on the agar plates was counted.

[2] = system: Streptococcus gallolyticus SG04; details: SG04, MHB, 24 h 37 °C
Source text: as §3, §4

[3] = system: viridans group streptococcus SV06; details: SV06, MHB, 24 h 37 °C
Source text: as §3, §4

[4] = system: Staphylococcus aureus SA117; details: SA117, MHB, 24 h 37 °C
Source text: as §3, §4

[5] = system: Pseudomonas aeruginosa PAO1; details: PAO1, MHB
Source text: as §3, §4

[6] = system: Streptococcus pneumoniae SP04; details: SP04, MHB, 24 h 37 °C
Source text: as §3, §4

[7] = system: Staphylococcus aureus SA113; details: SA113, MHB, 24 h 37 °C
Source text: as §3, §4

[8] = system: horse erythrocytes; assay: In vitro assay for hemolysis, horse blood
Method: (§1) Hemolysis caused by the peptoids was measured using 18 to 20 mL of a horse or human blood collected in EDTA-coated tubes which has been centrifuged at 500×g for 5 min. The supernatant was discarded and the pellet containing the cells were resuspended in PBS to a final volume of 20 mL. This step was repeated five times. After the final wash, the pellet was resuspended in PBS at the ratio of 1:10 (1 mL red blood cell: 9 mL PBS) to yield a final red blood cell (RBC) concentration of approximately 5 × 10^8 cells mL^−1. The concentration of RBCs was confirmed using a hemocytometer. The peptoids (stock concentration 2 mM) were diluted sequentially (two-fold dilutions) in PBS to final concentrations of […]. All the dilutions were subsequently mixed with the RBC suspension at the ratio of 1:1. MilliQ water was used as a positive control and PBS was used as a negative control in this assay. All samples were incubated at 37 °C for 3 h. Following incubation, the tubes were centrifuged at 500 x g for five mins, the supernatants were collected, transferred to wells in a 96 well plate and their optical density was measured at 540 nm. The percentage of hemolysis was calculated by dividing the absorbance of the test sample by the absorbance of the positive control, and multiplying by 100. Data are presented as the hemolysis caused by each dilution of peptoid, and as the concentration of peptoid that caused 10 % or 50 % lysis of red blood cells.
(§2) The geometric mean is the nth root of the multiplied numbers, where n is the total number of data values. A similar formula was used to calculate the selectivity ratio, but by using the concentration of peptoid that caused 10 % hemolysis.

[9] = system: Pseudomonas aeruginosa PA219; details: PA219, MHB, 24 h 37 °C
Source text: as §3, §4

[10] = system: Staphylococcus aureus SA114; details: SA114, MHB, 24 h 37 °C
Source text: as §3, §4

[11] = system: Staphylococcus aureus SA65; details: SA65, MHB, 24 h 37 °C
Source text: as §3, §4

[12] = system: Streptococcus pneumoniae SP06; details: SP06, MHB, 24 h 37 °C
Source text: as §3, §4

[13] = system: Pseudomonas aeruginosa PA233; details: PA233, MHB, 24 h 37 °C
Source text: All S. aureus strains used were isolated from cases of microbial keratitis (Table 1) with various susceptibilities to antibiotics. The S. pneumoniae strains used were SP04, SP06 and SP07 [46] and Streptococcus gallolyticus SV06 (all isolated from eyes of contact lens wearers during adverse events); P. aeruginosa PAO1 (which was originally isolated from a wound, and is an invasive strain containing the gene exoS) as well as isolates from microbial keratitis, PA 235 (invasive strain containing exoS), PA216 (a cytotoxic strain containing exoU), PA219 (cytotoxic strain containing exoU), PA 233 (cytotoxic strain containing exoU), with various susceptibilities to antibiotics were also used. C. albicans ATCC 10231, a yeast, isolated from case of a human bronchomycosis, was also evaluated.
The peptoids’ minimum inhibitory and bactericidal concentrations (MIC and MBC) were determined using micro broth dilution methods as previously described with slight modifications, [26, 39, 49, 50], and without using acetic acid and bovine serum albumin [39]. Briefly, bacteria or yeast were suspended in Muller Hinton broth (MHB, Oxoid, Thermo Fisher Scientific, Thebarton, SA, Australia) at 0.1 OD660nm, which was equivalent to 1x10^8 colony forming units (CFU) mL^−1. This suspension was further diluted to achieve 5x10^6 CFU mL^−1. The peptoids were diluted in MHB from 250 to 0.24 μg mL^−1 in 96-well polystyrene microplates (COSTAR, Corning Incorporated, New York, NY, USA). This range was selected to cover the range of MIC values previously reported for ESKAPE pathogens. This was followed by addition of 100 μL of each microbial suspensions. Wells with only bacteria or the yeast were treated as a negative control, and wells with only MHB medium were treated as a blank. The plates were incubated at 37 °C with shaking at 120 rpm for 24 h. After incubation, the media in each well was serially diluted in phosphate buffered solution and then inoculated onto tryptone soya agar (Oxoid) plates for bacteria, or Sabouraud’s dextrose agar for the yeast, and incubated at 37 °C for 18 hrs. Post incubation, the number of CFUs on the agar plates was counted.

[14] = system: tested bacteria; assay: Geometric mean of MIC of the tested bacteria; details: nth root of the multiplied MICs of the tested bacteria
Source text: as §2

[15] = system: Streptococcus pneumoniae SP07; details: SP07, MHB, 24 h 37 °C
Source text: as §3, §4

[16] = system: Staphylococcus aureus SA34; details: SA34, MHB, 24 h 37 °C
Source text: as §3, §4

[17] = system: human erythrocytes; assay: In vitro assay for hemolysis, human blood
Method: as §1, §2

[18] = system: Candida albicans ATCC 10231; assay: MIC/MBC (fungicidal) micro broth dilution; details: ATCC 10231 (yeast), MHB, 24 h 37 °C
Source text: as §3, §4

[19] = system: Pseudomonas aeruginosa PA235; details: PA235, MHB, 24 h 37 °C
Source text: as §3, §4

CCCCCCCCCCNCC(=O)N(CCCCN)CC(=O)N(CC(=O)N(CC(=O)N(CCCCN)CC(=O)N(CC(=O)N(CC(=O)N(CCCCN)CC(N)=O)[C@@H](C)c1ccccc1)[C@@H](C)c1ccccc1)[C@@H](C)c1ccccc1)[C@@H](C)c1ccccc1 [TM18] (H-[NDecylGly][Nlys][Nspe][Nspe][Nlys][Nspe][Nspe][Nlys]-NH2)
MIC ([1]; ≥90 % reduction in CFUs): 15(12)/15(12) μg mL^−1 | MBC ([1]; ≥99.99 % reduction in CFUs): 15(12)/15(12) μg mL^−1 | MIC ([2]; ≥90 % reduction in CFUs): 15(12)/1512) μg mL^−1 | MBC ([2]; ≥99.99 % reduction in CFUs): 15(12)/1512) μg mL^−1 | MIC ([3]; ≥90 % reduction in CFUs): 15(12)/15(12) μg mL^−1 | MBC ([3]; ≥99.99 % reduction in CFUs): 15(12)/15(12) μg mL^−1 | MIC ([4]; ≥90 % reduction in CFUs): 3.9(3.1)/3.9(3.1) μg mL^−1 | MBC ([4]; ≥99.99 % reduction in CFUs): 3.9(3.1)/3.9(3.1) μg mL^−1 | MIC ([5]; 5x10^6 CFU mL^−1, 24 h 37 °C, ≥90 % reduction in CFUs): 15 µg/mL (≈ 12.1 µM) | MBC ([5]; 24 h 37 °C, ≥99.99 % reduction in CFUs): 31 µg/mL (≈ 24.9 µM) | MIC ([6]; ≥90 % reduction in CFUs): 15(12)/15(12) μg mL^−1 | MBC ([6]; ≥99.99 % reduction in CFUs): 15(12)/15(12) μg mL^−1 | MIC ([7]; ≥90 % reduction in CFUs): 1.9 µg/mL (≈ 1.53 µM) | MBC ([7]; ≥99.99 % reduction in CFUs): 1.95 µg/mL (≈ 1.57 µM) | Horse HC10 ([8]; concentration causing 10 % lysis of horse red blood cells, PBS, 3 h 37 °C, OD 540 nm): 3 µM | Horse HC50 ([8]; concentration causing 50 % lysis of horse red blood cells, PBS, 3 h 37 °C, OD 540 nm): 110 µM | SR horse blood (ratio HC10 to geometric mean MIC) ([8]; selectivity ratio): 0.6 | TI horse blood (ratio HC50 to geometric mean MIC) ([8]; therapeutic index): 22 | MIC ([9]; ≥90 % reduction in CFUs): 15 µg/mL (≈ 12.1 µM) | MBC ([9]; ≥99.99 % reduction in CFUs): 31 µg/mL (≈ 24.9 µM) | MIC ([10]; ≥90 % reduction in CFUs): 3.9(3.1)/3.9(3.1) μg mL^−1 | MBC ([10]; ≥99.99 % reduction in CFUs): 3.9(3.1)/3.9(3.1) μg mL^−1 | MIC ([11]; ≥90 % reduction in CFUs): 3.9(3.1)/3.9(3.1) μg mL^−1 | MBC ([11]; ≥99.99 % reduction in CFUs): 3.9(3.1)/3.9(3.1) μg mL^−1 | MIC ([12]; ≥90 % reduction in CFUs): 1.9(1.6)/1.9(1.6) μg mL^−1 | MBC ([12]; ≥99.99 % reduction in CFUs): 1.9(1.6)/1.9(1.6) μg mL^−1 | MIC ([13]; ≥90 % reduction in CFUs): 15 µg/mL (≈ 12.1 µM) | MBC ([13]; ≥99.99 % reduction in CFUs): 31 µg/mL (≈ 24.9 µM) | Geometric mean of MIC [14]: 5 µM | MIC ([15]; ≥90 % reduction in CFUs): 15(12)/15(12) μg mL^−1 | MBC ([15]; ≥99.99 % reduction in CFUs): 15(12)/15(12) μg mL^−1 | MIC ([16]; ≥90 % reduction in CFUs): 7.8(6.3)/7.8(6.3) μg mL^−1 | MBC ([16]; ≥99.99 % reduction in CFUs): 7.8(6.3)/7.8(6.3) μg mL^−1 | Human HC10 ([17]; concentration causing 10 % lysis of human red blood cells, PBS, 3 h 37 °C, OD 540 nm): 5 µM | Human HC50 ([17]; concentration causing 50 % lysis of human red blood cells, PBS, 3 h 37 °C, OD 540 nm): 225 µM | SR human blood (ratio HC10 to geometric mean MIC) ([17]; selectivity ratio): 1 | TI human blood (ratio HC50 to geometric mean MIC) ([17]; therapeutic index): 45 | MIC ([18]; ≥90 % reduction in CFUs): 3.9(3.1)/3.9(3.1) μg mL^−1 | MBC (minimum fungicidal concentration) ([18]; ≥99.99 % reduction in CFUs): 3.9(3.1)/3.9(3.1) μg mL^−1 | MIC ([19]; ≥90 % reduction in CFUs): 7.8 µg/mL (≈ 6.27 µM) | MBC ([19]; ≥99.99 % reduction in CFUs): 15 µg/mL (≈ 12.1 µM)
